Values joined by “and” are separate entries in the source; they are usually repeats but may differ in a detail not shown here. Equal values may be shown once. Read-outs that look alike come from different tables or passages of the source.

The test system of data set [1] is FaDu (H&N, squamous) xenograft. It counts as in vivo. The source says: The models were chosen from different cancer indications (colon, lung, head and neck, pancreatic), and histological subtypes (adeno, squamous, large cell). […]
The resulting Kaplan-Meier plots were compared by the log-rank test.

Another data set concerns FaDu xenograft. The data set is classed as in vivo. The source says:
The standard radiotherapy regimen used in the clinic is a 6-week fractionated treatment schedule (5 fractions of 2 Gy IR per week—60 Gy total).

Data set [2] relates to LoVo colon carcinoma xenografts. Description: Single agent efficacy, ATM pathway deficient LoVo xenograft. The data set is classed as in vivo, mouse. The source says:
We tested the effect of Compound 1 on the growth of established LoVo colon carcinoma xenografts that are known to be deficient in ATM pathway function due to mutation in the MRE11 protein.

Data set [3] addresses T1, DNA-PK (p-Ser2056) (Homo sapiens, UniProt P78527).
T1 construct: from tissue; host or cells: human tumor xenografts (FaDu, HCT116, WM164) grown in mice
Briefly: IR-induced DNA-PK phosphorylation in tumor tissue, ELISA, FaDu xenograft. The data set is classed as in vivo. The conditions noted are these: IR 50 Gy. The source says:
(§1) Following the induction of DSB by radiation therapy or other DNA damaging agents, the catalytic subunit of DNA-PK (DNA-PKc) is autophosphorylated at several serine and threonine residues. Ser2056 is one of the most prominent and best studied autophosphorylation sites. Because Ser2056 phosphorylation (p-Ser2056) correlated well with DNA-PK activation state it was chosen as the pharmacodynamics (PD) biomarker. Two different assay formats were established to measure p-Ser2056 in tumor tissue: ELISA and MSD format. In order to detect sequence reliable signal, IR was used at 50 Gy for the ELISA assay and 10 Gy for the more sensitive MSD assay.
On the technique in general: ELISA stands for enzyme-linked immunosorbent assay.

The target of data set [4] is T1, DNA-PK (p-Ser2056). Description: IR-induced DNA-PK phosphorylation in tumor tissue, ELISA, HCT116 xenograft. The data set is classed as in vivo. The conditions noted are these: IR 50 Gy.
Excerpt: as §1

The test system of another data set is FaDu. Briefly: AlamarBlue viability assay. It counts as cell-based, human. The method, then:
(§2) Compound 1 in combination with etoposide or cisplatin was tested in the following cancer cell lines for inhibition of tumor cells: human lung carcinoma (NCI-H460), human glioblastoma (MO59K and MO59J), and human squamous cell carcinoma pharynx (FaDu). Details of the assay protocol and material utilized are set forth below.
(§3) Cells were plated in a volume of 180 μl/well in 96-well plates: (FaDu: 1000 cells/well (168 h); NCI-H460 3000 cells/well (72 h) and 1000 cells/well (168 h); MO59J: 5000 cells/well (72 h) and 2000 cells/well (168 h); MO59K: 2000c/well (72 h) and 1000 cells/well (168 h)) and incubated at 37° C. and relevant C02 for 24 h hours. 20 μl per well of medium including serial dilutions of Compound 1 and/or Etoposide or Cisplatin were added to the culture plates and the incubation was continued further for 3 days (72 h) or 7 days (168 h) at 37° C. and relevant CO2. Compound 1 was pre-incubated for 30 min before Etoposide or Cisplatin were added.
(§4) Cells were plated in 200 μl volume per well (FaDu: 1000 cells/well (168 h); NCI-H460 3000 cells/well (72 h) and 1000 cells/well (168 h); MO59J: 5000 cells/well (72 h) and 2000 cells/well (168 h); MO59K: 2000c/well (72 h) and 1000 cells/well (168 h)). After 24 h incubation at 37° C. Compound 1, Etoposide or Cisplatin were dispensed by using the Digital HP Dispenser D300 (and the included dispensing software). Plates were further incubated for 3 days (72 h) or 7 days (168 h) at 37° C. and relevant CO2.
(§5) At the end of the compound incubation period 20 μl AlamarBlue reagent was added per well and the 96-well plates were incubated further up to seven hours. Absorption was determined at 540 nm by using Tecan Reader Connect and Magelan 7.
(§6) 0% effect=cells treated with DMSO; −100% effect=no cells

The next data set has as its system MO59J (DNA-PK deficient). Description: AlamarBlue viability assay. The data set is classed as cell-based, human. The conditions noted are these: compound incubation for 168 h. The method, then: as §2, §3, §4, §5, §6
Another data set deals with NCI-H460. Briefly: AlamarBlue viability assay. It counts as cell-based, human. The method, then:
as §2, §3, §4, §5, §6
On the technique in general: Resazurin is reduced to fluorescent resorufin, in cell work by metabolically active cells.

The next data set has as its system MO59K (DNA-PK wild type). Description: AlamarBlue viability assay. It counts as cell-based, human.
Another data set concerns COLO678. Description: Single agent activity, panel of 81 cancer cell lines plus PBMC. The conditions noted are these: Homo sapiens, COLO-678. It counts as cell-based.
Data set [5] deals with mesothelioma (pleura) cell lines. Description: cells. Particulars: read-out: Median etoposide concentration needed to reach GI50.
Procedure: Single agent as well as combination treatment growth inhibition effects were measured by ONCOLEAD.
Relative area above the dose-response curve (relAOC or AOC) were obtained as the area above the dose-response curve in the dose range between 1E-3M and 1E-10M.
Another data set has as its system SF295. Description: SRB growth inhibition, 93 cell lines panel. The conditions noted are these: Homo sapiens, SF-295, read-out: GI50 of etoposide (±Compound 1).

Procedure for SF295: Cell growth and treatment were performed in 96-well microtitre plates CELLSTAR® (Greiner Bio-One, Germany). Cells harvested from exponential phase cultures by trypsinization or by splitting (in the case of cells growing in suspension) were plated in 90 μl of media at optimal seeding densities. The optimal seeding density for each cell line was determined to ensure exponential growth for the duration of the experiment. All cells growing without anticancer agents were sub-confluent by the end of the treatment, as determined by visual inspection. […] The cells were allowed to grow at 37° C. for 72 (or 120) hours. […] Cells were fixed to the surface by addition of 10% TCA (for adherent growing cells) or 50% TCA (for semi-adherent growing cell or cells growing in suspension). After an hour of incubation at 4° C. plates were washed twice with 200 μl of deionized water and dried. Cells were then stained with 100 μl of 0.04% w/v SRB. The plates were incubated at room temperature for at least 30 min and washed six times with 1% acetic acid to remove unbound stain. […] Using these measurements, cellular responses can be calculated for incomplete inhibition of cell growth (GI), complete inhibition of cell growth (TGI) and net loss of cells (LC) due to compound activity. […] TGI was calculated from Ti=Tz.

As for `COc1ccc([C@@H](O)c2cc(-c3ncnc4cc(N5CCOCC5)ccc34)c(F)cc2Cl)nn1` [Compound 1, (S)-[2-chloro-4-fluoro-5-(7-morpholin-4-yl-quinazolin-4-yl)-phenyl]-(6-methoxy-pyridazin-3-yl)-methanol], the “Enhancement Ratio [combi/IR only]” value is 2.1 in [1] (IR 10 Gy (5 x 2 Gy) + Compound 1 150 mg/kg po); 1.4 in [1] (total IR 10 Gy, 25 mg/kg po); 1.9 in data set [1] (total IR 10 Gy, 100 mg/kg po); 0.9 in data set [1] (total IR 20 Gy, 5 mg/kg po); 1.13 in data set [1] (total IR 20 Gy, 10 mg/kg po); 2 and 1.9 in data set [1] (total IR 30 Gy (6 Gy daily), 10 mg/kg po, 10 mg/kg). Also, in data set [1] (total IR 30 Gy, 5 mg/kg po), the “Enhancement Ratio [combi/IR only]” value is 1.4. Besides, the “median time to TV400% Combi” value in [1] (IR 10 Gy (5 x 2 Gy) + Compound 1 150 mg/kg po 10 min prior to each fraction) is 46 days; in data set [1] (total IR 10 Gy, 25 mg/kg po), 29.5 days; in data set [1] (total IR 10 Gy, 100 mg/kg po), 40 days; in [1] (total IR 10 Gy, 300 mg/kg po) it was >63 days; in data set [1] (total IR 20 Gy, 5 mg/kg po), 43 days; in data set [1] (total IR 20 Gy, 10 mg/kg po), 56.5 days. The “median time to TV400% Combi” value in [1] (total IR 20 Gy, 100 mg/kg po) is given as >94 days; in data set [1] (total IR 30 Gy, 5 mg/kg po), 69 days; in data set [1] (total IR 30 Gy, 10 mg/kg po), 94 days. Besides, in data set [1] (daily 4 Gy (20 Gy total), 100 mg/kg, 92 day observation period), the tumor response entry was “complete response”. For the same compound, the “CR (complete response)” value in data set [1] (total IR 10 Gy, 300 mg/kg po, d 63) stood at 60% CR; in [1] (total IR 20 Gy, 100 mg/kg po, d 94) it was 100% CR. Besides, the tolerability result in [1] (total IR 30 Gy, 100 mg/kg po) is on record as “not tolerated”; in the data set with FaDu xenograft (6 weeks IR + Compound 1) it was “generally well tolerated”. The “complete tumor regression, % of the animals” value in the data set on FaDu xenograft (6 weeks IR (60 Gy total) + 10 mg/kg po, no regrowth during study period (113 days)) came to 44%. For the same compound, in the data set on FaDu xenograft (6 weeks IR (60 Gy total) + 25 and 50 mg/kg po), the tumor regression entry is “regressed in all 10 animals”. Besides, the “tumor growth in comparison to IR alone” value with FaDu xenograft (6 weeks IR (60 Gy total) + Compound 1 po) is listed as “strong inhibition of tumor growth”. Further, the tumor growth suppression result in [2] (150 mg/kg, three weeks) is “nearly complete growth suppression”. In data set [2] (three week administration), the tumor growth inhibition result is “dose-dependent tumor growth inhibition”. For the same compound, the “inhibition of IR-induced DNA-PK phosphorylation (Ser2056)” value against DNA-PK (p-Ser2056) [3] and on DNA-PK (p-Ser2056) [4] was “Dose-dependent inhibition” throughout. The “inhibition of viability, combination with etoposide” value with FaDu, in the data set with NCI-H460 and in the data set with MO59K (DNA-PK wild type) was “enhanced inhibition of viability” in each case. Further, the “combination effect with Etoposide on viability” value in the data set on MO59J (DNA-PK deficient) is reported as “no such combination effect”. For the same compound, in the data set with NCI-H460, the “combination effect with cisplatin on viability” value was “No significant combination effect”. Besides, the “potentiation of etoposide, Compound 1 in comparison to VX-984” value in the data set with MO59K (DNA-PK wild type) (compound incubation for 72 h) is “compares favorably”.
As for `COc1cc([C@@H]2c3cc4c(cc3[C@@H](O[C@@H]3O[C@@H]5CO[C@@H](C)O[C@H]5[C@H](O)[C@H]3O)[C@H]3COC(=O)[C@H]23)OCO4)cc(OC)c1O` [Etoposide], the GI50 in the data set on COLO678 is > 10 µM; in data set [5], 1 µM; in the data set with SF295, 1.16 µM.

These data come from patent publication US11246929B2, “Combination of a protein kinase inhibitor and an additional chemotherapeutic agent” (Merck Patent GmbH, priority 2016, dated 2022).
